Laboratory results as given in patent US10080784B2, “Enhanced therapeutic usage of a purine nucleoside phosphorylase or nucleoside hydrolase prodrug” (SOUTHERN RESEARCH INSTITUTE, priority 2011, dated 2018).
In brackets after ≈: the same amount, converted by molar mass. Entries after “also recorded” stand apart in the source; their conditions may differ.

Assays:
[1] = system: parental D54 tumors (no E. coli PNP expression); experiment: Intratumoral injection into parental D54 tumors (no E. coli PNP expression)
Experimental: Parental and E. coli PNP expressing D54MG (human glioma) tumor cells (2×10^7 cells) are injected subcutaneously into the flanks of nude mice (nu/nu) purchased from Charles River Laboratories (Wilmington, Mass.). D54 tumor cells stably transduced with E. coli PNP are prepared as described previously (Parker et al. Cancer Gene Therapy 2011 June; 18(6):390-8). Tumors are measured with calipers and an estimate of the weight calculated using the equation, (length×width^2)/2=mm^3, and converted to mg assuming unit density. […] Each treatment arm of each group contained at least 6 mice. Mice are monitored daily for weight loss and twice weekly for tumor dimensions. T-C (tumor growth delay) is taken as the difference in days to 2 doublings between drug-treated and saline-treated groups. The time to the evaluation point for each animal (2 doublings) is used as the end point in a Student's t-test, the Mann-Whitney rank sum test, or a life table analysis in order to statistically compare growth data between treatment groups. All procedures are performed in accordance with a protocol approved by the IACUC of Southern Research Institute. F-araAMP is obtained from Schering A.-G. (Berlin, Germany). In this and subsequent examples, F-Ade is obtained from General Intermediates of Canada, Inc. (Edmonton, Alberta, Canada). Treatments are initiated when tumors are 250 to 300 mg (˜1-1.5% of total animal weight).
In FIG. 2A, parental D54 tumor cells are mixed with D54 tumor cells that had been transduced with E. coli PNP to a final proportion in which 10% express the transgene. This 90/10 mixture is injected sc into the flanks of nude mice. Tumors are injected once per day for 3 consecutive days starting on day 14 with 150 μl of saline, 1.5 mg of F-araAMP dissolved in saline, or 3 mg of F-araAMP is dissolved in saline. […] In FIG. 2B, parental D54 tumor cells (no E. coli PNP expression) are injected sc into the flanks of nude mice. Tumors are inoculated once per day for 3 consecutive days starting on day 14 with 150 μl of saline, 3 mg F-araAMP is dissolved in saline, 0.15 mg of F-Ade dissolved in saline, 1.26 mg of F-Ade dissolved in […] DMSO, 0.63 mg of F-Ade dissolved in DMSO, or DMSO.
As noted above, the amount of F-araAMP given intratumorally (in FIG. 2A) is less than the total intraperitoneal dose described in FIG. 1. In order to investigate the impact of higher doses of F-araAMP, the F-araAMP is dissolved in DMSO, and given at concentrations well tolerated IT, but well above the maximally-tolerated dose if administered IP (Hong et al. Cancer Res. 2004; 64: 6610-6615). Three doses of 6 or 24 mg is administered by IT injection to tumors in which 10% of cells expressed E. coli PNP (FIG. 2C). Parental D54 tumor cells or mixtures of D54 tumor cells in which 10% of the cells express E. coli PNP are injected sc into the flanks of nude mice. Tumors are injected once per day for 3 consecutive days starting on day 17 with 150 μl of DMSO, 24 mg F-araAMP in DMSO, or 6 mg F-araAMP in DMSO.

[2] = Limit of solubility of F-Ade in water; type: physicochemical; settings: dissolved in water
[3] = system: D54 tumors that express E. coli PNP in 5% of the cells; experiment: Systemic intraperitoneal F-araAMP on D54 tumors expressing E. coli PNP in 5% of cells; type: in vivo, nude mice
Experimental: Intraperitoneal treatment with F-araAMP (250 mg/kg once per day for 3 consecutive days; 167 mg/kg 3 times per day for 3 consecutive days; 100 mg/kg 5 times a day for 3 consecutive days; or vehicle control 5 times a day×3 days) began on day 17 when tumors are approximately 250 mg. […] (FIG. 1)

[4] = system: D54 tumors in which 10% of the cells express E. coli PNP; experiment: Intratumoral injection into D54 tumors in which 10% of cells express E. coli PNP; type: in vivo, nude mice
Experimental: Parental and E. coli PNP expressing D54MG (human glioma) tumor cells (2×10^7 cells) are injected subcutaneously into the flanks of nude mice (nu/nu) purchased from Charles River Laboratories (Wilmington, Mass.). […] Tumors are measured with calipers and an estimate of the weight calculated using the equation, (length×width^2)/2=mm^3, and converted to mg assuming unit density. […] Each treatment arm of each group contained at least 6 mice. Mice are monitored daily for weight loss and twice weekly for tumor dimensions. T-C (tumor growth delay) is taken as the difference in days to 2 doublings between drug-treated and saline-treated groups. The time to the evaluation point for each animal (2 doublings) is used as the end point in a Student's t-test, the Mann-Whitney rank sum test, or a life table analysis in order to statistically compare growth data between treatment groups. […] Treatments are initiated when tumors are 250 to 300 mg (˜1-1.5% of total animal weight).

[5] = system: D54 tumors in which 10% of cells express E. coli PNP; experiment: F-araAMP plus radiation on D54 tumors in which 10% of cells express E. coli PNP; settings: 3 mg F-araAMP in saline x3, radiation 4 Gy x3, 3 hours after injection
Experimental: Locally advanced solid tumors often become resistant to radiation therapy. As a test of adjuvant E. coli PNP in this setting, F-araAMP injection together with external beam radiation is investigated.
D54 tumor cells in which 10% of cells expressed E. coli PNP are injected sc into the flanks of nude mice. The tumors are treated with radiation, F-araAMP, or F-araAMP plus radiation. In two treatment groups, tumors are injected once per day for 3 consecutive days with 150 μl of either saline or 3 mg F-araAMP dissolved in saline. In two other treatment groups radiation (4 Gy) is administered once per day for 3 consecutive days 3 hours after injection of 150 μl of either saline (filled squares) or 3 mg F-araAMP dissolved in saline (open squares).

[6] = system: D54 tumors; experiment: Radioactivity in tumors after intratumoral injection of [3H]F-araAMP, parental D54 tumors; type: in vivo, mice
Experimental: Total radioactivity is determined after injection of 3 mg [8-^3H]F-araAMP (10 μCi) into 300 mg D54 flank tumors. [8-^3H]F-araAMP is obtained from Moravek Biochemicals Inc. (Brea, Calif.). Tumors are removed from the mice at 10 minutes or 4 hours after injection and dissolved in 1 ml of Soluene 350 (Packard Instrument, Meriden, Conn.) by incubating at 55° C. for 4 hours. A portion of each extract is mixed with scintillation fluid and radioactivity determined.
In an effort to understand the pharmacodynamics of intratumoral (IT) F-araAMP, the levels of prodrug activation in parental (D54) tumors and tumors in which 10% of cells expressed E. coli PNP are monitored (Table 1). Tumor tissue is collected 10 minutes or 4 hours after IT injection of 3 mg [^3H]-F-araAMP and the amount of radioactivity remaining in the tumor mass determined.
Three mg (8,200 nmoles) of [^3H]F-araAMP (10 μCi/injection) are injected into D54 tumors or D54 tumors in which 10% of the cells express E. coli PNP as described in FIG. 2. Tumors (approximately 300 mg) are removed 10 minutes and 4 hours after injection with F-araAMP and the amount of radioactivity in each tumor determined. There are 4 tumors per group.

[7] = schedule q1d×3; cited from earlier work
[8] = molecular target: T1, E. coli PNP (Escherichia coli, UniProt P0ABP8); settings: cited from earlier work
T1 construct: expressed in transfected cells; host or cells: D54MG human glioma cells, either stably transduced by lentivirus or transduced in vivo with adenoviral vector Ad/PNP, grown as xenografts in nude mice; Crude tumor extracts were assayed

[9] = molecular target: T1, E. coli PNP; experiment: Measurement of E. coli PNP activity in tumor extracts; type: biochemical; settings: D54 tumors on day 20 after 2×10^11 VP Ad/PNP IT twice per day x3 days, FIG. 5A experiment
Experimental: The proportion of lentiviral transduced cells in a tumor mass is verified by measuring E. coli PNP activity in representative cancers removed from mice on the first day of drug treatment. Crude extracts are prepared as described previously (Parker et al. Human Gene Therapy 1997; 8: 1637-1644) after tumor excision from the flanks of mice. […] The formation of MeP is monitored using reverse phase HPLC. By convention, one unit of PNP activity is defined as the amount of extract necessary to cleave 1 nmole of MeP-dR per mg protein in a 1 hour period.

T1 sequence (P0ABP8 whole entry): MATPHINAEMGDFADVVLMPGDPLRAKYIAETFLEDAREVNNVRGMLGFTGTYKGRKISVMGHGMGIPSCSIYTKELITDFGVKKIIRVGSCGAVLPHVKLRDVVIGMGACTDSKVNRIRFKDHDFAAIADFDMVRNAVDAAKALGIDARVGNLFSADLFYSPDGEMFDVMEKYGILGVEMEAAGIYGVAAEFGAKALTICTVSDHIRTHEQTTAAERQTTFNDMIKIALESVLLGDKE

In the case of `Nc1nc(F)nc2nc[nH]c12` [F-Ade, 2-fluoroadenine], the “Tumor growth, P versus DMSO vehicle group” value ([1]; 0.63 mg F-Ade in DMSO IT once per day x3, FIG. 2B) is reported as 0.011, the Antitumor effect ([1]; F-Ade 0.15 ml of 1 mg/ml in water/saline (highest possible solubility) IT) is reported as “no antitumor effect; also recorded: fails to elicit antitumor activity” and the Antitumor effect ([1]; F-Ade in DMSO IT (0.15 ml of 8.6 mg/ml; 1.26 mg x3)) is reported as “modest antitumor effect; also recorded: minimal antitumor activity”. The “Maximally tolerated dose (MTD)” value ([1]; F-Ade in DMSO, three IT injections) was about 1.26 mg, the “Decrease in body weight” value ([1]; three IT injections of 1.26 mg F-Ade in DMSO) was 10% and the Death of mice ([1]; three IT injections of 2.5 mg F-Ade in DMSO) was 3 of 6. The Death of mice ([1]; three IT injections of 5 mg F-Ade in DMSO) was 4 of 6 and the solubility [2] was 1000 µg/mL (≈ 6.53 mM).

For `Nc1nc(F)nc2c1ncn2[C@@H]1O[C@H](COP(=O)(O)O)[C@@H](O)[C@@H]1O` [F-araAMP, fludarabine phosphate], the “Gross tissue damage in region surrounding the tumor” value ([3]; IP F-araAMP) was “no gross tissue damage”, the “Decrease in body weight” value ([3]; IP F-araAMP, quickly regained after schedule completed) was 10 to 20% and the “Tumor growth, P versus vehicle treated group” value ([3]; all IP F-araAMP groups (250 mg/kg x3, 167 mg/kg x9, 100 mg/kg x15 over 3 days), from day 17, FIG. 1) was under 0.001. For the same compound, the Weight loss ([4]; 3 mg F-araAMP IT per injection, 3 total injections) was “less than 4%”, the “Tumor growth, P versus vehicle treated group” value ([4]; 3 mg F-araAMP in saline IT once per day x3 from day 14, FIG. 2A) was under 0.001 and the “Tumor growth, P versus vehicle treated group” value ([4]; 6 mg F-araAMP in DMSO IT once per day x3 from day 17, FIG. 2C) was 0.014. For the same compound, the Tumor ulcerations ([4]; 6 mg F-araAMP in DMSO IT x3) was “no ulcerations”, the “Tumor growth, P versus vehicle treated group” value ([4]; 24 mg F-araAMP in DMSO IT once per day x3 from day 17, FIG. 2C) was under 0.001 and the “Tumors that became ulcerated” value ([4]; 24 mg F-araAMP in DMSO IT x3) was “Three of the 6”. For the same compound, the “Tumors completely regressed, mice tumor-free until day 70” value ([4]; 24 mg F-araAMP in DMSO IT x3, of 6 tumors, 3 sacrificed for ulceration) was 3 tumors, the “Decrease in body weight” value ([4]; F-araAMP IT at the highest dose (24 mg), recovered rapidly) was 7% and the “Tumor growth, P of 3 mg group versus 1.5 mg group” value ([4]; F-araAMP in saline IT once per day x3 from day 14, FIG. 2A) was 0.458. For the same compound, the “Effect on tumor growth” value ([1]; IT F-araAMP, FIGS. 2B, 2D and 3) was “no effect”, the “Tumor growth, P of radiation plus F-araAMP versus F-araAMP only” value [5] was 0.004 and the “Tumor growth, P of radiation plus F-araAMP versus radiation only” value [5] was under 0.001. The “Radioactivity in tumor, nmoles F-araAMP/gram of tissue” value ([6]; 10 min after IT injection of 3 mg [3H]F-araAMP) was 980 ± 730 nmoles F-araAMP/gram of tissue, the “Radioactivity in tumor, nmoles F-araAMP/gram of tissue” value ([6]; 4 hours after IT injection of 3 mg [3H]F-araAMP) was 31 ± 6 nmoles F-araAMP/gram of tissue and the Maximally tolerated dose [7] was 750 mg/kg.

In the case of `Nc1nc(F)nc2c1ncn2[C@H]1C[C@H](O)[C@@H](CO)O1` [F-dAdo, 2-F-2′-deoxyadenosine], the “Substrate for E. coli PNP compared with F-araA” value [8] is given as “much better substrate”.

For Ad/PNP, the “E. coli PNP activity in the tumors” value [9] was 7,500±2,000 units.
